The test system of this data set is HCT-116 human colorectal carcinoma xenograft tumor. The data set is described as follows: HCT-116 nude mouse xenograft model. In kind it is in vivo, BALB/c nude mice. As to conditions: for Body weight: tumor-bearing nude mice, D-res 100 mg/kg i.p. From the text:
All animal studies were approved and performed according to Animal Care and Use Guidelines of the Animal Ethics Committee at Hong Kong Baptist University. BALB/c nude mice, SPF class, male, 6-8 weeks old, were purchased from BioLASCO, Taiwan. Before the xenograft experiment, the mice were acclimatized to SPF class laboratory conditions for a week.
HCT-116 cells in logarithmic growth phase were collected by trypsinization. After centrifugation and rinsing, cells were re-suspended in serum-free DMEM medium at 3×10^7 cells/mL. Nude mice were skin disinfected with 75% medical ethanol, subcutaneously injected with 100 μL of the HCT-116 cell suspension using a 25-G syringe to their left flank. The same procedure was repeated for the tumor cell injection to the right flank.
Seven days after tumor cell injection, 24 mice with tumor volumes of 32 mm^3 to 178 mm^3 were randomly assigned into 3 groups; the average initial tumor volumes in each group of mice were 78.04±7.76 mm^3 (vehicle, 8 mice), 78.76±9.40 mm^3 (5-FU, 8 mice), 78.01±7.75 mm^3 (D-res, 8 mice) respectively.
Vehicle solution: 2.5% Ethanol and Cremphor EL (1:1 v/v) dissolved in physiological saline.
5-FU solution: 5-FU powder was dissolved in 2.5% Ethanol and Cremphor EL to a concentration of 5 mg/mL.
D-res solution: Dihydro-resveratrol powder was dissolved in 2.5% Ethanol and Cremphor EL solution to a concentration of 20 mg/mL.
Vehicle group (n=8): 2.5% Ethanol and Cremphor EL solution was intraperitoneally injected every other day for 21 days.
5-FU group (n=8): 5-FU solution was given to mice at 25 mg/kg by intraperitoneal injection every other day for 21 days.
D-res group (n=8): D-res solution was given to mice at 100 mg/kg by intraperitoneal injection every other day for 21 days. This is equivalent to a dosage of no less than 8.13 mg/kg of bodily weight in human.

[1] abbreviates: 21-day administration, 100 mg/kg i.p.

Regarding `Oc1ccc(CCc2cc(O)cc(O)c2)cc1` [Dihydro-resveratrol, trans-3,5,4′-trihydroxybibenzyl], the “effect on body weight of the nude mice” value under setting [1] was “did not lead to a notable reduction in body weight”. The “growth of xenograft tumor (size, volume, weight) compared to 5-FU” value under setting [1] is “more sufficiently restrained”. Besides, the “Tumor Volume (mm^3)” value is recorded as 78.01 ± 7.75 mm^3 (Day 1 (initial), i.p. every other day, 5-FU 25 mg/kg, D-res 100 mg/kg); 137.54 ± 14.69 mm^3 (Day 4, i.p. every other day, 5-FU 25 mg/kg, D-res 100 mg/kg); 167.58 ± 22.65 mm^3 (Day 7, i.p. every other day, 5-FU 25 mg/kg, D-res 100 mg/kg); 273.28 ± 41.5 mm^3 (Day 10, i.p. every other day, 5-FU 25 mg/kg, D-res 100 mg/kg); 355.48 ± 78.57 mm^3 (Day 13, i.p. every other day, 5-FU 25 mg/kg, D-res 100 mg/kg); 409.35 ± 74.3 mm^3 (Day 16, i.p. every other day, 5-FU 25 mg/kg, D-res 100 mg/kg). Also, the “Tumor Volume (mm^3)” value is reported as 585.98 ± 110.96 mm^3 (Day 19, i.p. every other day, 5-FU 25 mg/kg, D-res 100 mg/kg); 559.76 ± 100.63 mm^3 (Day 21, i.p. every other day, 5-FU 25 mg/kg, D-res 100 mg/kg); 586.92 ± 88.51 mm^3 (Day 22, i.p. every other day, 5-FU 25 mg/kg, D-res 100 mg/kg). In addition, the “Body weight” value was found to be 20.69 ± 0.55 g (Day 1, 5-FU 25 mg/kg); 20.76 ± 0.65 g (Day 4, 5-FU 25 mg/kg); 20.33 ± 0.9 g (Day 7, 5-FU 25 mg/kg); 20.57 ± 0.66 g (Day 10, 5-FU 25 mg/kg); 20.53 ± 0.82 g (Day 13, 5-FU 25 mg/kg); 20.31 ± 0.88 g (Day 16, 5-FU 25 mg/kg). Further, the “Body weight” value is 20.51 ± 0.87 g (Day 19, 5-FU 25 mg/kg); 18.79 ± 0.59 g (Day 21, 5-FU 25 mg/kg); 20.63 ± 0.99 g (Day 22, 5-FU 25 mg/kg). In addition, the “Tumor weight” value (treated for 21 days, i.p. every other day, 5-FU 25 mg/kg, D-res 100 mg/kg) was 0.60 ± 0.11 g.

Source of the values: US10351500B2, “Method of using of dihydro-resveratrol or its stilbenoid derivatives and/or chemical variants as antimicrobial agents” (Hong Kong Baptist University, priority 2015, dated 2019).
